Results taken from patent publication US8178506B2, “Oligomeric compounds and compositions for use in modulation of small non-coding RNAs” (Regulus Therapeutics Inc., priority 2003, dated 2012).
In the oligonucleotide strings, read from the 5' end, every base follows the letter of its sugar. An asterisk marks phosphorothioate; unmarked linkages are phosphodiester. Other units and linkages are bracketed, terminal groups are in braces. A string of capitals states the bases alone. e = 2'-O-(2-methoxyethyl) (MOE); [5mC] = 5-methylcytosine

What was measured:
Format in all cases: cell-based, human
HSL = HSL mRNA expression in adipocytes (real-time PCR)
PPARγ = PPARγ mRNA expression in adipocytes (real-time PCR)
adipocytes = assay: Triglyceride accumulation assay in adipocytes
Glut4 = Glut4 mRNA expression in adipocytes (real-time PCR)
aP2 = aP2 mRNA expression in adipocytes (real-time PCR); settings: for aP2 mRNA: Table 75
[1] = Table 18, differentiating adipocytes, control = treatment with ISIS 342673
[2] = differentiating adipocytes transfected with oligomeric compound, Table 75
[3] = differentiating adipocytes transfected with oligomeric compound
[4] = Table 17, differentiating adipocytes, control = treatment with ISIS 342673

Substance	HSL mRNA (HSL; [1])	HSL mRNA (HSL; [2])	PPAR gamma mRNA (PPARγ; [1])	PPAR gamma mRNA (PPARγ; [2])	TG (triglyceride accumulation) (adipocytes; [1])	TG (triglyceride accumulation) (adipocytes; [2])	GLUT4 mRNA (Glut4; [1])	GLUT4 mRNA (Glut4; [2])	AP2 mRNA (aP2; [1])	aP2 mRNA (aP2; [3])	HSL mRNA (HSL; [4])	PPAR gamma mRNA (PPARγ; [4])	TG (triglyceride accumulation) (adipocytes; [4])	GLUT4 mRNA (Glut4; [4])	AP2 mRNA (aP2; [4])	HSL mRNA (HSL; [3])	PPAR gamma mRNA (PPARγ; [3])	TG (triglyceride accumulation) (adipocytes; [3])	GLUT4 mRNA (Glut4; [3])	AP2 mRNA (aP2; [3])
328104 (antisense eT*eA*eT*eG*eA*eT*eA*eG*e[5mC]*eT*eT*e[5mC]*e[5mC]*e[5mC]*e[5mC]*eA*eT*eG*eT*eA*eA) [compound 328104]	98.2 percentage of control	81 percentage of untreated control (UTC)	90.4 percentage of control	73 percentage of untreated control (UTC)	122.6 percentage of control	64 percentage of untreated control (UTC)	119.1 percentage of control	83 percentage of untreated control (UTC)	102.2 percentage of control	94 percentage of untreated control (UTC)										
348116 (UUCGCCCUCUCAACCCAGCUUUU; anti-miR; all 2'-MOE, all phosphorothioate, methylation of C and T or U not given here) [compound 348116]		58 percentage of untreated control (UTC)		76 percentage of untreated control (UTC)		43 percentage of untreated control (UTC)		48 percentage of untreated control (UTC)		79 percentage of untreated control (UTC)										
328103 (antisense e[5mC]*e[5mC]*e[5mC]*eA*eA*eT*eA*eT*e[5mC]*eA*eA*eA*e[5mC]*eA*eT*eA*eT*e[5mC]*eA) [compound 328103]	82.5 percentage of control	87 percentage of untreated control (UTC)	74.3 percentage of control	83 percentage of untreated control (UTC)	110.2 percentage of control	113 percentage of untreated control (UTC)	94.3 percentage of control	86 percentage of untreated control (UTC)	83.2 percentage of control	96 percentage of untreated control (UTC)										
328089 (antisense eA*e[5mC]*eT*eG*eT*eA*eG*eG*eA*eA*eT*eA*eT*eG*eT*eT*eT*eG*eA*eT*eA) [compound 328089]		55 percentage of untreated control (UTC)		79 percentage of untreated control (UTC)		67 percentage of untreated control (UTC)		59 percentage of untreated control (UTC)		50 percentage of untreated control (UTC)										
344276 (antisense CAGGCAUAGGAUGACAAAGGGAA; all 2'-MOE, all phosphorothioate, methylation of C and T or U not given here) [compound 344276]		68 percentage of untreated control (UTC)		72 percentage of untreated control (UTC)		66 percentage of untreated control (UTC)		49 percentage of untreated control (UTC)		72 percentage of untreated control (UTC)										
340356 (antisense CUCAAUAGACUGUGAGCUCCUU; all 2'-MOE, all phosphorothioate, methylation of C and T or U not given here) [compound 340356]		59 percentage of untreated control (UTC)		62 percentage of untreated control (UTC)		43 percentage of untreated control (UTC)		54 percentage of untreated control (UTC)		73 percentage of untreated control (UTC)										
328124 (antisense eA*eG*e[5mC]*eA*eG*eG*eT*eG*eA*eA*eG*eG*e[5mC]*eA*e[5mC]*e[5mC]*eT*eG*eG*e[5mC]*eT) [compound 328124]		96 percentage of untreated control (UTC)		92 percentage of untreated control (UTC)		108 percentage of untreated control (UTC)		105 percentage of untreated control (UTC)		118 percentage of untreated control (UTC)	103.6 percentage of control	90.4 percentage of control	99.1 percentage of control	122.7 percentage of control	101.8 percentage of control					
328106 (antisense eA*eT*eT*eG*eA*eT*eG*e[5mC]*eG*e[5mC]*e[5mC]*eA*eT*eT*eT*eG*eG*e[5mC]*e[5mC]*eT*eA) [compound 328106]	94.9 percentage of control	86 percentage of untreated control (UTC)	90.7 percentage of control	81 percentage of untreated control (UTC)	90.5 percentage of control	70 percentage of untreated control (UTC)	105.7 percentage of control	79 percentage of untreated control (UTC)	88.8 percentage of control	91 percentage of untreated control (UTC)										
328132 (antisense eG*eT*eG*eA*eG*eA*eG*eT*eA*eG*e[5mC]*eA*eT*eG*eT*eT*eT*eG*eT*e[5mC]*eT) [compound 328132]											73.7 percentage of control	90.0 percentage of control	114.1 percentage of control	72.1 percentage of control	90.2 percentage of control	89 percentage of untreated control (UTC)	94 percentage of untreated control (UTC)	120 percentage of untreated control (UTC)	67 percentage of untreated control (UTC)	81 percentage of untreated control (UTC)
346909 (UCACCAAAACAUGGAAGCACUUA; all 2'-MOE, all phosphorothioate, methylation of C and T or U not given here) [compound 346909]		64 percentage of untreated control (UTC)		77 percentage of untreated control (UTC)		66 percentage of untreated control (UTC)		64 percentage of untreated control (UTC)		68 percentage of untreated control (UTC)										
